The numbers were not newly measured in US6080760A, “Alpha 1A adrenergic receptor antagonists” (Merck & Co., Inc., priority 1998, dated 2000), which cites them from elsewhere.

The subject of data set [1] is adrenergic receptors of the alpha1 subtype. To be noted: reported in WO 92/0073.
The next data set deals with prostatic hyperplasia. To be noted: reported in EP 0 204597.

In the case of `COc1cc2nc(N3CCN(C(=O)[C@H]4CCCO4)CC3)nc(N)c2cc1OC` [R(+) enantiomer of terazosin], the “selective binding to adrenergic receptors of the alpha1 subtype” value in data set [1] is reported as “selective ability”.
`COc1cc2nc(N(C)CCCNC(=O)C3CCCO3)nc(N)c2cc1OC` (centres unmarked) [alfuzosin]: the “urination in cases of prostatic hyperplasia” value with prostatic hyperplasia is reported as “induce urination”.
